Results taken from patent US7314878B2, “Piperazine benzothiazoles as agents for the treatment of cerebral ischemic disorders or CNS disorders” (Laboratories Serono SA, priority 2002, dated 2008).
Read-outs that look alike come from different tables or passages of the source.

What was measured:
[1] = system: neuronal death in CA1/CA2 subfields of the hippocampus; assay: Global ischemia in gerbils (bilateral carotid occlusion); assay type: in vivo; settings: 40 mg per kg ip, 15 min, 24 h and 48 h after reperfusion; gerbil
Text: b) Global Ischemia in Gerbils
The ability of the JNK inhibitors described in formula I to protect cell death during a stroke event may be assessed using the following protocol:
The gerbil bilateral carotid occlusion is a well-described animal model of acute ischemic stroke and involves relatively easy surgical techniques.
The neuronal degeneration in the hippocampus develops over several days and is often referred as “delayed neuronal death”. In addition, the neurodegeneration observed histologically is obvious and easily quantified (11). Furthermore, the histopathology seen in the gerbil is similar to that observed in the hippocampal CA1 region of the human brain following a cardiac arrest. Behavior observations, such as memory tests, could even be performed in the case of gerbils. This kind of tests for appreciation of the degree of recovery is not easily manageable in other models such as in rat whose learning abilities are much poorer (12).
The neuroprotective effect according to formula I to protect may be assessed using-the gerbil global ischemia model and such a protocol: […]

[2] = Assessment of the BBB passage: brain and plasma sampling; assay type: in vivo, Sprague Dawley rats; settings: rat, i.v. 10 mg/kg; for concentration at 0.25 h / concentration at 0.5 h / concentration at 1 h: pooled n = 2
Text: c) Assessment of the BBB Passage: Brain and Plasma Sampling
The compounds of the present invention are useful in the treatment and/or prophylaxis of cerebral ischemic disorders or CNS disorders. Specifically, the compounds of the present invention show a good capacity to cross the blood-brain barrier (EBB). The BBB passing capacity of the compounds according to formulae I or II may be assessed using the below protocols. The objective of this assay is to quantify the amount of the test compounds according to formulae I or II in the brain of rats following i.v. administration.
Six male Crl:CD(SD)Br Sprague Dawley rats (about 8 weeks old and having a weight of about 300 g) were divided into the 3 following groups:
2 animals for i.v. administration (10 mg/kg of test compound of formula I in 0.9% NaCl for injection). The test compound is administered by single dose (dose regimen). The sampling is performed at 0.25 h after sacrifice.
2 animals for i.v. administration (10 mg/kg of test compound of formula I in 0.9% NaCl for injection). The test compound is administered by single dose (dose regimen). The sampling is performed at 0.5 h after sacrifice.
2 animals for i.v. administration (10 mg/kg of test compound of formula I in 0.9% NaCl for injection). The test compound is administered by single dose (dose regimen). The sampling is performed at 1 h after sacrifice.
At each scheduled killing time, the animals of the corresponding group are deeply anaesthetised with diethyl ether. The blood for the corresponding blood samples is collected into heparinised tubes and centrifuged to remove the blood cells thus providing plasma. Plasma samples obtained at each sampling time (i.e. at t=0.25 h, 0.5 h, 1 h) from the rats of each group after administration of the test compound of formula (I) are pooled in order to obtain 1 pooled sample per sampling time per group. Rats are then sacrificed by exsanguination.
For the-brain sampling, the whole brain (cerebrum and cerebellum) of the sacrificed animals is removed. Brain from two animals per sampling time (i.e. at t=0.25 h, 0.5 h, 1 h after administration) are pooled in order to obtain one pooled sample per sampling time. Each pooled sample is homogenized in a solvent mixture (acetonitrile/methanol/dimethyl-sulfoxide, 50:48:2 by volume) centrifuged and the supernatant analyzed for the test compound.
Concentrations in plasma samples and brain homogenates are quantified according to an analytical HPLC-MS/MS method, properly developed for the compound.
The test compound used in this assay is the one set out in Example 1 (i.e. 1,3-benzothiazol-2-yl[2-({4-[(4-methylpiperazin-1-yl)methyl]-benzyl}oxy)pyrimidin-4-yl]acetonitrile.

CN1CCN(Cc2ccc(COc3nccc(C(C#N)c4nc5ccccc5s4)n3)cc2)CC1 (centres unmarked) [Example 1, 1,3-benzothiazol-2-yl[2-({4-[(4-methylpiperazin-1-yl)methyl]-benzyl}-oxy)pyrimidin-4yl]acetonitrile]
inhibition of neuronal death [1]: about 60%
concentration at 0.25 h ([2]; male, Crl:CD(SD)Br Sprague Dawley, brain, iv, 0.25 h, read-out: Brain concentration): 919 ng/g
concentration at 0.5 h ([2]; male, Crl:CD(SD)Br Sprague Dawley, brain, iv, 0.5 h, read-out: Brain concentration): 657 ng/g
concentration at 1 h ([2]; male, Crl:CD(SD)Br Sprague Dawley, brain, iv, 1 h, read-out: Brain concentration): 679 ng/g
Kp at 0.25 h ([2]; male, Crl:CD(SD)Br Sprague Dawley, brain/plasma, iv, 0.25 h, read-out: Brain/Plasma ratio): 0.32
Kp at 0.5 h ([2]; male, Crl:CD(SD)Br Sprague Dawley, brain/plasma, iv, 0.5 h, read-out: Brain/Plasma ratio): 0.3
Kp at 1 h ([2]; male, Crl:CD(SD)Br Sprague Dawley, brain/plasma, iv, 1 h, read-out: Brain/Plasma ratio): 0.34
concentration at 0.25 h ([2]; male, Crl:CD(SD)Br Sprague Dawley, plasma, iv, 0.25 h, read-out: Plasma concentration): 2840 ng/mL
concentration at 0.5 h ([2]; male, Crl:CD(SD)Br Sprague Dawley, plasma, iv, 0.5 h, read-out: Plasma concentration): 2160 ng/mL
concentration at 1 h ([2]; male, Crl:CD(SD)Br Sprague Dawley, plasma, iv, 1 h, read-out: Plasma concentration): 1980 ng/mL
passage into the brain ([2]; 0.25-1 h): considerable and sustained passage of the test compound into the brain
